The values below come from patent publication US10906894B2, “Compounds containing benzo[d][1,3]oxathiole, benzo[d][1,3]oxathiole 3-oxide or benzo[d][1,3]oxathiole 3,3-dioxide and methods/uses thereof as agonists of g protein-coupled receptor 119” (PRAMANA PHARMACEUTICALS INC., priority 2016, dated 2021).

Molecules are shown by their SMILES.

The target of experiment [1] is T1, GPR119 (Homo sapiens, UniProt Q8TDV5).
T1 sequence (Q8TDV5 1-335): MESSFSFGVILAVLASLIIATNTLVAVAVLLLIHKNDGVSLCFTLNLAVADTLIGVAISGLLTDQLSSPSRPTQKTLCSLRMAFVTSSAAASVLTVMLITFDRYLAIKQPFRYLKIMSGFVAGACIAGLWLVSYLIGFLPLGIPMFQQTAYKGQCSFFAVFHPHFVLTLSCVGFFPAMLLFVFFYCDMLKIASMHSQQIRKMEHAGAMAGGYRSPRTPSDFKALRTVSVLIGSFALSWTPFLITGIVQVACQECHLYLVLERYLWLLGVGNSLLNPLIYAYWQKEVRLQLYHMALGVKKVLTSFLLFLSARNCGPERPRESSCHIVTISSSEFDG
Briefly: LANCE Ultra cAMP assay: stimulation of GPR119-mediated cAMP production in CHO cells stably expressing human GPR119 receptor. Type of experiment: cell-based. The conditions noted are these: for Emax: CHO, read-out: % cAMP Max. On the procedure:
The potency of GPR119 receptor agonists was assessed by measuring the stimulation of GPR119-mediated cAMP production with LANCE Ultra cAMP assay (Perkin Elmer, TRF0264) in CHO cells stably expressing human GPR119 receptor (Chantest, cat. #A633). CHO-GPR119 cells were cultured in DMEM/F12 medium supplemented with 10% FBS and 1% NEAA at 37° C., 5% CO2, aliquoted and frozen in liquid nitrogen.
For assay, cells were thawed in a water bath at 37° C., washed in Hank's Balanced Salt Solution (HBSS) and resuspended in Stimulation Buffer 1 (SB1) for 30 min: 5 mM HEPES, pH 7.2-7.4, 0.1% BSA in HBSS. […] The ULight-anti-cAMP antibody (Perkin Elmer, TRF0264) was added to the cell suspension making Mix [Cell suspension/4× ULight-anti-cAMP antibodies]. […] The assay plate was centrifuged 200 g, 5 sec.
Serial dilution (100×) of tested compounds were prepared in DMSO in the range of from 30 nM to 1 mM with half-log step in 384-well plates (Greiner, 781280) using Biomek 2000. 10 test concentrations in two repeats were prepared for each CRC. […] The assay plate was incubated 30 minutes at room temperature on a shaker, 250 rpm to allow GPR119 receptor stimulation. The cAMP level was determined according to the standard kit supplier protocol (PerkinElmer, cat. #TRF0264).
(§1) The stock solution of the Eu-cAMP tracer (Perkin Elmer, TRF0264) was diluted 1:100 in cAMP Detection Buffer (Perkin Elmer, TRF0264), making 2× working concentration and added to the assay plate, 10 μL per well. Assay plate was centrifuged 180 g, 1 sec. Then the assay plate was incubated for 60′ at room temperature on shaker, 250 rpm to allow cAMP detection. The TR-FRET signal was measured at Ex-340 nm/Em-615 and Ex-340 nm/Em-665 nm on the reader Tecan M1000. 0% of cAMP stimulation corresponds to the cells with DMSO only, 100% of cAMP stimulation corresponds to the cells with 10 uM Forskolin. The EC50 value defined as the concentration of the drug that gives half-maximal response, were calculated using GraphPad Prizm 5.0 software with forskolin was used as references at each test. Entries 1-17 in Table A-2 show the biological activity of certain representative compounds using the protocol as described above.
For assay, cells were thawed in a water bath at 37° C., washed in Hank's Balanced Salt Solution (HBSS) and resuspended in Stimulation Buffer 1 (SB1) for 30 min: 5 mM HEPES, pH 7.2-7.4, 0.1% BSA in HBSS. […] The ULight-anti-cAMP antibody (Perkin Elmer, TRF0264) was added to the cell suspension, making Mix [Cell suspension/4× ULight-anti-cAMP antibodies]. […] The assay plate was centrifuged 200 g, 5 sec.
as §1, with “1-14” for “1-17”, “B-2” for “A-2”
(TR-FRET usually uses a lanthanide donor and a delayed reading to cut background.)

Experiment [2] has as its target T1, GPR119. Nature of the experiment: PathHunter β-arrestin assay (enzyme fragment complementation, β-galactosidase reporter) monitoring activation of GPR119. The conditions noted are these: for EC50: Table B-3; for Emax: Table B-3, read-out: % cAMP Max. Details: β-galactosidase enzyme fragment for EFC (by own knowledge the ProLink tag, fused to the receptor's C-terminus in PathHunter lines). Type of experiment: cell-based. The protocol:
Certain test compounds were evaluated using the PathHunterR β-arrestin assay, which monitors the activation of GPR119 in a homogenous, non-imaging assay format using the enzyme fragment complementation (EFC) technology (DiscoverX Corporation, Fremont, Calif. U.S.A.; www.discoverx.com) with β-galactosidase as the functional reporter.

The mark [3] stands for this setting: Table B-2 entries 15-39, modified protocol, 500 cells/well.
Setting [4] is: reference ligands in modified protocol, 500 cells/well.

Broadly, the EC50 is the concentration needed to bring the measured effect to its halfway point. At GPR119 [1] (Table B-2 entries 1-14, protocol as described (800 000 cells/mL, 5 uL/well), CHO-GPR119 cells), `[O-][S@@+]1COc2cc(-c3ccc(OCC4CCN(c5ncc(Cl)cn5)CC4)c(F)c3)ccc21` [Example B-34, (R)-6-(4-((1-(5-chloropyrimidin-2-yl)piperidin-4-yl)methoxy)-3-fluorophenyl)-2H-benzo[d][1,3]oxathiole-3-oxide] registered an EC50 of 0.9 nM. Besides, at GPR119 [2], the EC50 worked out at 35.7 nM and the Emax was found to be 172%.

As to `CC(C)c1cnc(N2CCC(COc3ccc(-c4ccc5c(c4)OC[S@@+]5[O-])cc3F)CC2)nc1` [Example B-46, (S)-6-(3-fluoro-4-((1-(5-isopropylpyrimidin-2-yl)piperidin-4-yl)methoxy)phenyl)-2H-benzo[d][1,3]oxathiole 3-oxide], at GPR119 [1] (setting [3]), the Emax amounted to 82% and a half-maximal effect (EC50) was put at 10.1 nM. On GPR119 [2], a half-maximal response (EC50) required 7.9 nM and the Emax was 164%.

Consider `COc1cnc(N2CCC(COc3ccc(-c4ccc5c(c4)OC[S@@+]5[O-])cc3F)CC2)nc1` [Example B-50, (S)-6-(3-Fluoro-4-((1-(5-methoxypyrimidin-2-yl)piperidin-4-yl)methoxy)phenyl)-2H-benzo[d][1,3]oxathiole 3-oxide], for which, on GPR119 [1] (setting [3]), the Emax amounted to 66% and the EC50 was determined as 3.7 nM. Further, on GPR119 [2], the EC50 came out at 16.4 nM and the Emax stood at 169%.

Consider `[O-][S@+]1COc2cc(-c3ccc(OCC4CCN(c5ncc(Cl)cn5)CC4)c(F)c3)ccc21` [Example B-59, (S)-6-(4-((1-(5-Chloropyrimidin-2-yl)piperidin-4-yl)methoxy)-3-fluorophenyl)-2H-benzo[d][1,3]oxathiole 3-oxide], for which the Emax at GPR119 [1] (setting [3]) is 70%; at GPR119 [2], 175%. The EC50 at GPR119 [1] (setting [3]) stood at 1.7 nM; on GPR119 [2], 6.7 nM.

As to `CCc1cnc(N2CC[C@H](COc3ccc(-c4ccc5c(c4)OC[S@@+]5[O-])cc3F)C2)nc1` [Example B-75, (S)-6-(4-(((S)-1-(5-Ethylpyrimidin-2-yl)pyrrolidin-3-yl)methoxy)-3-fluorophenyl)-2H-benzo[d][1,3]oxathiole 3-oxide], at GPR119 [1] (setting [3]), the Emax was found to be 88% and the EC50 is 17.7 nM. Besides, at GPR119 [2], it took 60 nM to reach a half-maximal effect (EC50) and the Emax turned out to be 190%.

As for `CCc1cnc(N2CC[C@H](COc3ccc(-c4ccc5c(c4)OC[S@+]5[O-])cc3F)C2)nc1` [Example B-76], at GPR119 [1] (setting [3]), the Emax is 80% and the EC50 amounted to 20.5 nM.

`CCc1cnc(N2CC[C@@H](COc3ccc(-c4ccc5c(c4)OC[S@@+]5[O-])cc3F)C2)nc1` [Example B-77]: on GPR119 [1] (setting [3]), the Emax stood at 81% and the EC50 came to 32.5 nM.

On to `CCc1cnc(N2CC[C@@H](COc3ccc(-c4ccc5c(c4)OC[S@+]5[O-])cc3F)C2)nc1` [Example B-78], for which, on GPR119 [1] (setting [3]), the Emax came to 72% and a half-maximal effect (EC50) was put at 115 nM.

On to `[O-][S@+]1COc2cc(-c3ccc(OC[C@H]4CCN(c5ncc(Cl)cn5)C4)c(F)c3)ccc21` [Example B-81, (S)-6-(4-(((S)-1-(5-Chloropyrimidin-2-yl)pyrrolidin-3-yl)methoxy)-3-fluorophenyl)-2H-benzo[d][1,3]oxathiole 3-oxide], for which, on GPR119 [1] (setting [3]), the Emax came to 95% and the EC50 is 30 nM.

As for `CCc1ccnc(N2CC[C@H](COc3ccc(-c4ccc5c(c4)OC[S@@+]5[O-])cc3F)C2)n1` [Example B-84, (S)-6-(4-(((S)-1-(4-Ethylpyrimidin-2-yl)pyrrolidine-3-yl)methoxy)-3-fluorophenyl)-2H-benzo[d][1,3]oxathiole 3-oxide], the Emax at GPR119 [1] (setting [3]) worked out at 92%; on GPR119 [2], 117%. Further, the half-maximal effective concentration (EC50) at GPR119 [1] (setting [3]) was found to be 31.5 nM; at GPR119 [2] it was 567 nM.

Turning to `CCc1ccnc(N2CC[C@H](COc3ccc(-c4ccc5c(c4)OC[S@+]5[O-])cc3F)C2)n1` [Example B-85, (R)-6-(4-(((S)-1-(4-Ethylpyrimidin-2-yl)pyrrolidine-3-yl)methoxy)-3-fluorophenyl)-2H-benzo[d][1,3]oxathiole 3-oxide], on GPR119 [1] (setting [3]), the Emax was determined as 64% and a half-maximal effect (EC50) was put at 13 nM. Moreover, on GPR119 [2], the midpoint of the response, the EC50, lay at 657 nM and the Emax turned out to be 73%.

For `[O-][S@@+]1COc2cc(-c3ccc(OC[C@H]4CCN(c5ncc(Cl)cn5)C4)c(F)c3)ccc21` [Example B-86, (R)-6-(4-(((S)-1-(5-Chloropyrimidin-2-yl)pyrrolidine-3-yl)methoxy)-3-fluorophenyl)-2H-benzo[d][1,3]oxathiole 3-oxide], at GPR119 [1] (setting [3]), the Emax is 93% and the EC50 was 4.6 nM. Also, on GPR119 [2], a half-maximal effect (EC50) was put at 108 nM and the Emax amounted to 133%.

Take `CCc1cnc(N2CC[C@H](COc3ccc(-c4ccc5c(c4)OC[S@@+]5[O-])cc3)C2)nc1` [Example B-91, (S)-6-(4-(((S)-1-(5-Ethylpyrimidin-2-yl)pyrrolidine-3-yl)methoxy)phenyl)-2H-benzo[d][1,3]oxathiole 3-oxide]: at GPR119 [1] (setting [3]), the Emax came out at 93% and the EC50 is 10.3 nM. On GPR119 [2], the EC50 was 222 nM and the Emax came out at 155%.

Turning to `C=C[C@@]1(C)CC(=O)[C@]2(O)[C@@]3(C)[C@@H](O)CCC(C)(C)[C@@H]3[C@H](O)[C@H](OC(C)=O)[C@@]2(C)O1` [Forscolin, Forskolin, reference compound], on GPR119 [1] (setting [4]), the midpoint of the response, the EC50, lay at 28.5 nM and the “maximum cAMP stimulation” value was 124%.

On to `CCCCCCCC/C=C\CCCCCCCC(=O)NCCO` [oleoyl ethanolamide, reference compound], for which, at GPR119 [1] (setting [4]), it took 592 nM to reach a half-maximal effect (EC50) and the “maximum cAMP stimulation” value worked out at 100%.
